# Columns and labels:
# injury-induced OA model = experiment: pain behavior in injury-induced OA model (DMM surgery; Von Frey test, static weight bearing); assay type: in vivo, mice; details: NR 400 mg/kg/day, PT 80 mg/kg/day
# Protocol: In vivo studies were designed to determine if oral supplementation of NR+PT (5:1) with NR at 400 mg/kg/day (the commonly used dose in animal studies) and PT at 80 mg/kg/day is better than NR alone (400 mg/kg/day) or PT alone (80 mg/kg/day), in limiting cartilage degradation and reducing pain in an injury-induced OA model. […] Because synergistic or additive effect of NR+PT combination was not initially observed, in vitro studies tested the combination of NR and PT at different ratio (NR:PT, 1:1, 2:1, 4:1, 6:1) and different concentrations (based on PT concentration at 25, 50 and 100 uM) on chondrocyte response to IL-1beta. Because IL-1b is known to induce nitric oxide (NO) production in chondrocytes, NO release (measured from the conditioned media) was used as a readout. It was determined that NR+PT at 2:1 ratio had the best efficacy in inhibition of IL-1b induced NO release, particularly for NR at 0.1 mM and PT at 0.05 mM. […] See, FIGS. 1 and 2. C57BL/6J mice at 12 weeks of age were subjected to joint injury via destabilization of medial meniscus (DMM) surgery through transection of meniscotibial ligament. Sham surgery (just skin incision) was performed on separate group of mice. […] Pain-like behaviors was evaluated at baseline (1 weeks before the surgery) and 2, 4, 6, 8 and 10 weeks after DMM surgery. • 1. […]
# [1] = cited from earlier work
smiles,measurement,setting,value
"NC(=O)c1ccc[n+]([C@@H]2O[C@H](CO)[C@@H](O)[C@H]2O)c1 [NR, nicotinamide riboside]","efficacy on pain, comparison among treatment groups","injury-induced OA model; NR+PT 5:1, gavage daily",slightly better efficacy
same,pain compared to the non-treated controls,"injury-induced OA model; NR+PT 5:1, gavage daily after DMM surgery",significantly less pain
same,reduction of conversion of NR to NAM,[1]; germ-free mice after oral intake,3 fold
same,stability of NR in gut and circulation,"[1]; mouse, in vivo",rapidly degraded to NAM

# — patent publication US20260053837A1, “NICOTINAMIDE-RIBOSIDE AND PTEROSTILBENE COMBINATIONS TO TREAT OSTEOARTHRITIS” (The Regents of the University of California, priority 2022, published 2026)
